Results as given in PubChem BioAssay AID330 (DTP/NCI, 2004).
Where “and” joins values, the source holds several entries; their conditions need not be identical. Equal values may be shown once. Toxic doses and inconclusive results are not listed.

System: P388 leukemia ip, CD2F1 mice, survival T/C
Assay: NCI In Vivo Anticancer Drug Screen. Data for tumor model P388 Leukemia (intraperitoneal) in CD2F1 (CDF1) mice
Conditions: endpoint: median survival time, higher = longer survival
Description: The antitumor activity of compounds was measured in mice bearing transplantable tumors. Survival or tumor size were measured and the results are expressed as the measurement made in the treated group (T) divided by the measurement made in the vehicle treated control group (C). The tumor model used in this assay is P388 Leukemia (intraperitoneal) in CD2F1 (CDF1) mice

[1] = dose: 100.0 mg/kg/injection, schedule: Q01DX009 (ip), vehicle: saline
[2] = dose: 200.0 mg/kg/injection, schedule: Q01DX009 (ip), vehicle: saline
[3] = dose: 12.5 mg/kg/injection, schedule: Q01DX009 (ip), vehicle: saline
[4] = dose: 25.0 mg/kg/injection, schedule: Q01DX009 (ip), vehicle: saline
[5] = dose: 50.0 mg/kg/injection, schedule: Q01DX009 (ip), vehicle: saline with Tween-80
[6] = dose: 50.0 mg/kg/injection, schedule: Q01DX009 (ip), vehicle: saline
[7] = dose: 25.0 mg/kg/injection, schedule: Q01DX009 (ip), vehicle: other
[8] = dose: 50.0 mg/kg/injection, schedule: Q01DX009 (ip), vehicle: other
[9] = dose: 100.0 mg/kg/injection, schedule: Q01DX009 (ip), vehicle: other
[10] = dose: 200.0 mg/kg/injection, schedule: Q01DX009 (ip), vehicle: other
[11] = dose: 25.0 mg/kg/injection, schedule: Q04DX002 (ip), vehicle: saline with Tween-80
[12] = dose: 50.0 mg/kg/injection, schedule: Q04DX002 (ip), vehicle: saline with Tween-80
[13] = dose: 50.0 mg/kg/injection, schedule: Q01DX005 (ip), vehicle: saline with Tween-80
[14] = dose: 100.0 mg/kg/injection, schedule: Q01DX005 (ip), vehicle: saline with Tween-80
[15] = dose: 200.0 mg/kg/injection, schedule: Q01DX005 (ip), vehicle: saline with Tween-80
[16] = dose: 60.0 mg/kg/injection, schedule: Q01DX005 (ip), vehicle: saline with Tween-80
[17] = dose: 120.0 mg/kg/injection, schedule: Q01DX005 (ip), vehicle: saline with Tween-80
[18] = dose: 240.0 mg/kg/injection, schedule: Q01DX005 (ip), vehicle: saline with Tween-80
[19] = dose: 60.0 mg/kg/injection, schedule: Q01DX005 (ip), vehicle: Klucel (hydroxypropylcellulose) (HPC)
[20] = dose: 120.0 mg/kg/injection, schedule: Q01DX005 (ip), vehicle: Klucel (hydroxypropylcellulose) (HPC)
[21] = dose: 240.0 mg/kg/injection, schedule: Q01DX005 (ip), vehicle: Klucel (hydroxypropylcellulose) (HPC)
[22] = dose: 100.0 mg/kg/injection, schedule: Q04DX002 (ip), vehicle: saline with Tween-80
[23] = dose: 200.0 mg/kg/injection, schedule: Q04DX002 (ip), vehicle: saline with Tween-80

## Cc1ccc(N)c(O)c1
[1]
  T/C: 102 % of control and 105 % of control
[2]
  T/C: 100 % of control and 103 % of control
dose: 400.0 mg/kg/injection, schedule: Q01DX009 (ip), vehicle: saline
  T/C: 101 % of control and 113 % of control
dose: 600.0 mg/kg/injection, schedule: Q01DX009 (ip), vehicle: saline
  T/C: 115 % of control

## CCC1CN2CCC3(C(=O)Nc4ccccc43)C2CC1/C(=C/OC)C(=O)OC (configuration not stated)
dose: 6.25 mg/kg/injection, schedule: Q01DX009 (ip), vehicle: saline
  T/C: 102 % of control
[3]
  T/C: 100 % of control
[4]
  T/C: 102 % of control
[5]
  T/C: 100 % of control
[6]
  T/C: 103 % of control

## ClC1=C(Cl)C2(Cl)C3C(Cl)C(Cl)CC3C1(Cl)C2(Cl)Cl (configuration not stated)
dose: 3.12 mg/kg/injection, schedule: Q01DX009 (ip), vehicle: saline + Tween-80 + alcohol
  T/C: 100 % of control and 101 % of control
dose: 6.25 mg/kg/injection, schedule: Q01DX009 (ip), vehicle: saline + Tween-80 + alcohol
  T/C: 107 % of control and 112 % of control
dose: 12.5 mg/kg/injection, schedule: Q01DX009 (ip), vehicle: saline + Tween-80 + alcohol
  T/C: 114 % of control and 87 % of control
[7]
  T/C: 110 % of control and 89 % of control
dose: 25.0 mg/kg/injection, schedule: Q01DX009 (ip), vehicle: saline + Tween-80 + alcohol
  T/C: 103 % of control and 96 % of control
[8]
  T/C: 110 % of control and 86 % of control and 98 % of control
[9]
  T/C: 108 % of control and 93 % of control
[10]
  T/C: 90 % of control

## NC(=O)c1c(N)ncnc1N
dose: 12.5 mg/kg/injection, schedule: Q04DX002 (ip), vehicle: saline with Tween-80
  T/C: 102 % of control
[11]
  T/C: 104 % of control
[12]
  T/C: 101 % of control

## CC(C)(C)c1ccc(S(=O)[O][Sn]([CH3])([CH3])[O]S(=O)c2ccc(C(C)(C)C)cc2)cc1 (configuration not stated)
dose: 50.0 mg/kg/injection, schedule: Q01DX001 (ip), vehicle: Klucel (hydroxypropylcellulose) (HPC)
  T/C: 110 % of control
dose: 200.0 mg/kg/injection, schedule: Q01DX001 (ip), vehicle: Klucel (hydroxypropylcellulose) (HPC)
  T/C: 114 % of control

## COCn1cc(C(N)=O)c(=O)c2c(N)nc(SC)nc21
[11]
  T/C: 96 % of control

## O=c1[nH]c(CN2CCCCC2)ccc1O
[4]
  T/C: 105 % of control and 109 % of control
[6]
  T/C: 99 % of control and 105 % of control
[1]
  T/C: 106 % of control and 109 % of control
[2]
  T/C: 117 % of control and 118 % of control

## CCN(CC)c1cc2oc3cc(N)cc(=N)c-3nc2cc1C
dose: 12.5 mg/kg/injection, schedule: Q01DX005 (ip), vehicle: saline
  T/C: 102 % of control
dose: 25.0 mg/kg/injection, schedule: Q01DX005 (ip), vehicle: saline
  T/C: 98 % of control
[13]
  T/C: 112 % of control
dose: 50.0 mg/kg/injection, schedule: Q01DX005 (ip), vehicle: saline
  T/C: 96 % of control
[14]
  T/C: 107 % of control
[15]
  T/C: 102 % of control

## O=C1CSC(c2cc(F)ccc2F)N1c1nncs1 (configuration not stated)
[16]
  T/C: 107 % of control
[17]
  T/C: 109 % of control
[18]
  T/C: 104 % of control

## C[N+]1(N)CCOCC1
[3]
  T/C: 97 % of control
[4]
  T/C: 100 % of control
[6]
  T/C: 92 % of control

## COc1ccc2c(=O)cc(-c3ccccc3)sc2c1
[19]
  T/C: 106 % of control
[20]
  T/C: 104 % of control
[21]
  T/C: 98 % of control

## CC(=O)NC(C)c1ccc2ccccc2c1 (configuration not stated)
[16]
  T/C: 97 % of control
[17]
  T/C: 96 % of control
[18]
  T/C: 97 % of control

## COc1ccc(-c2oc3cc(OC)c(OC)c(O)c3c(=O)c2O)cc1O
[11]
  T/C: 105 % of control
[12]
  T/C: 110 % of control
[22]
  T/C: 103 % of control
[23]
  T/C: 102 % of control

## O=C1S/C(=C2\C(=O)N(CN3CCCCC3)c3ccccc32)C(=O)N1CN1CCCCC1
[19]
  T/C: 99 % of control
[20]
  T/C: 96 % of control
[21]
  T/C: 92 % of control

## N#CC(C(=O)C(=O)Nc1ccc(Cl)c(Cl)c1)c1ccccc1 (configuration not stated)
[16]
  T/C: 100 % of control
[17]
  T/C: 99 % of control

## Cc1ccc(O)c(C(c2ccc3c(c2)OCO3)N2CCOCC2)c1 (configuration not stated)
[16]
  T/C: 101 % of control
[17]
  T/C: 100 % of control
[18]
  T/C: 97 % of control

## Cn1c(Cc2ccccc2)c(C(=O)/C=C/c2ccccc2)c(=O)n(C)c1=O
[13]
  T/C: 103 % of control
[14]
  T/C: 100 % of control
[15]
  T/C: 99 % of control

## O=C(c1ccc([N+](=O)[O-])cc1)C(Br)C(Br)c1ccncc1 (configuration not stated)
[7]
  T/C: 110 % of control
[8]
  T/C: 104 % of control
[9]
  T/C: 106 % of control
[10]
  T/C: 103 % of control

## c1ccc([Si]2(c3ccccc3)O[Si](c3ccccc3)(c3ccccc3)O[Si](c3ccccc3)(c3ccccc3)O[Si](c3ccccc3)(c3ccccc3)O2)cc1
dose: 25.0 mg/kg/injection, schedule: Q01DX009 (ip), vehicle: saline with Tween-80
  T/C: 95 % of control and 97 % of control
[5]
  T/C: 100 % of control and 92 % of control and 93 % of control
dose: 100.0 mg/kg/injection, schedule: Q01DX009 (ip), vehicle: saline with Tween-80
  T/C: 120 % of control and 94 % of control and 95 % of control
dose: 200.0 mg/kg/injection, schedule: Q01DX009 (ip), vehicle: saline with Tween-80
  T/C: 90 % of control (2×) and 93 % of control

## NC(=S)NN=C1/C(=N\O)CCC/C1=N/O
[16]
  T/C: 97 % of control
[17]
  T/C: 97 % of control
[18]
  T/C: 97 % of control

## Clc1nc(Cl)nc(Nc2ccc(-c3cc4ccc(-c5ncc[nH]5)cc4[nH]3)cc2)n1
[19]
  T/C: 100 % of control
[20]
  T/C: 100 % of control
[21]
  T/C: 105 % of control

## O=C(Nc1nncs1)c1cccs1
[12]
  T/C: 100 % of control
dose: 50.0 mg/kg/injection, schedule: Q04DX002 (ip), vehicle: saline
  T/C: 113 % of control
[14]
  T/C: 103 % of control
[22]
  T/C: 104 % of control and 114 % of control
dose: 100.0 mg/kg/injection, schedule: Q04DX002 (ip), vehicle: saline
  T/C: 106 % of control
[15]
  T/C: 101 % of control
[23]
  T/C: 114 % of control
dose: 200.0 mg/kg/injection, schedule: Q04DX002 (ip), vehicle: saline
  T/C: 122 % of control
dose: 400.0 mg/kg/injection, schedule: Q01DX005 (ip), vehicle: saline with Tween-80
  T/C: 96 % of control
dose: 600.0 mg/kg/injection, schedule: Q04DX002 (ip), vehicle: saline with Tween-80
  T/C: 160 % of control
dose: 800.0 mg/kg/injection, schedule: Q01DX005 (ip), vehicle: saline with Tween-80
  T/C: 104 % of control

## COC1C(CN(C)N=Nc2ccccc2C(N)=O)OC2OC(C)(C)OC21 (configuration not stated)
[22]
  T/C: 94 % of control
[23]
  T/C: 91 % of control
dose: 400.0 mg/kg/injection, schedule: Q04DX002 (ip), vehicle: saline with Tween-80
  T/C: 91 % of control

## Cc1ccccc1-c1nc2c3ccccc3c3ccccc3c2[nH]1
dose: 50.0 mg/kg/injection, schedule: Q01DX005 (ip), vehicle: Klucel (hydroxypropylcellulose) (HPC)
  T/C: 103 % of control
dose: 100.0 mg/kg/injection, schedule: Q01DX005 (ip), vehicle: Klucel (hydroxypropylcellulose) (HPC)
  T/C: 96 % of control
dose: 200.0 mg/kg/injection, schedule: Q01DX005 (ip), vehicle: Klucel (hydroxypropylcellulose) (HPC)
  T/C: 100 % of control

## Cc1ccnc(Sc2ccc([N+](=O)[O-])cc2[N+](=O)[O-])n1
[6]
  T/C: 102 % of control
[1]
  T/C: 104 % of control
[2]
  T/C: 100 % of control

## O=C(O)c1c[nH]c2cc(OCCc3ccc(F)cc3)ccc2c1=O
[6]
  T/C: 107 % of control
[1]
  T/C: 101 % of control
[2]
  T/C: 101 % of control

## C[CH2][Sn]([CH2]C)([n]1c2ccccc2c2c(C)c3cnccc3c(C)c21)[n]1c2ccccc2c2c(C)c3cnccc3c(C)c21
dose: 1.56 mg/kg/injection, schedule: Q01DX005 (ip), vehicle: Klucel (hydroxypropylcellulose) (HPC)
  T/C: 118 % of control
dose: 6.25 mg/kg/injection, schedule: Q01DX005 (ip), vehicle: Klucel (hydroxypropylcellulose) (HPC)
  T/C: 155 % of control

## O=C1c2ccccc2C(=O)N1C(=NC1CCCCC1)c1ccccc1
dose: 100.0 mg/kg/injection, schedule: Q04DX003 (ip), vehicle: Klucel (hydroxypropylcellulose) (HPC)
  T/C: 104 % of control
dose: 200.0 mg/kg/injection, schedule: Q04DX003 (ip), vehicle: Klucel (hydroxypropylcellulose) (HPC)
  T/C: 101 % of control
dose: 400.0 mg/kg/injection, schedule: Q04DX003 (ip), vehicle: Klucel (hydroxypropylcellulose) (HPC)
  T/C: 109 % of control
